This is an account of results in ChEMBL document CHEMBL4184250, “Structure-activity studies of a macrocyclic peptide inhibitor of histone lysine demethylase 4A” (Bioorg Med Chem, 2018).

Data set [1] addresses T1, Lysine-specific demethylase 4A (Homo sapiens, UniProt O75164).
T1 sequence (O75164 whole entry): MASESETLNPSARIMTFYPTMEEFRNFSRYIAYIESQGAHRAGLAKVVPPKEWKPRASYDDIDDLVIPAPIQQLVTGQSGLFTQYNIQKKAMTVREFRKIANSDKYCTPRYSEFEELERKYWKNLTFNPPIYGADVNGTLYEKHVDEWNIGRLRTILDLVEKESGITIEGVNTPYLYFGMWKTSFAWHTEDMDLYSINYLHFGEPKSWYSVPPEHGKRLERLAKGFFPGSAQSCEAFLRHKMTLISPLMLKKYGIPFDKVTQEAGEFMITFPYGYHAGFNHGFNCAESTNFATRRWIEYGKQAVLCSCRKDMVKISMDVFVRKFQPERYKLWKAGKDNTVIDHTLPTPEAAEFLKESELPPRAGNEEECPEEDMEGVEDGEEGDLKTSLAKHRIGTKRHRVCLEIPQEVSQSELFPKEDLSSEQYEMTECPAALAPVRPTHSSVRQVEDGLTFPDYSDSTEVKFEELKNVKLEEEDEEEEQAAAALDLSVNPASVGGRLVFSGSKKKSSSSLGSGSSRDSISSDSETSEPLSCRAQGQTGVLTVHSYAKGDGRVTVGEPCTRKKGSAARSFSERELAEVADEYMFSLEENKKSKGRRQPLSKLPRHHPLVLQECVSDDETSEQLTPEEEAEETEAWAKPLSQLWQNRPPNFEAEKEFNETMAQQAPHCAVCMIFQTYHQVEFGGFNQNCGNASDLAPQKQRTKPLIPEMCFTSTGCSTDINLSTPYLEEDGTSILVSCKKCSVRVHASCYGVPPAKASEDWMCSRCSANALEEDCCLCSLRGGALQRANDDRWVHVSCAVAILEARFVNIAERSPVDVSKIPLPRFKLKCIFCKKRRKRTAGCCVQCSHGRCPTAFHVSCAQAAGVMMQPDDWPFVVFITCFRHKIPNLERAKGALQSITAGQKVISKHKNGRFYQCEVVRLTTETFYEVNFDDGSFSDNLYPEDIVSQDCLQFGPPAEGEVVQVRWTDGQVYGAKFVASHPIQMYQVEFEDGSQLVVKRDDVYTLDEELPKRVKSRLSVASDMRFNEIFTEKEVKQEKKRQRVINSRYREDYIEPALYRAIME
Put plainly: Binding affinity to biotinylated-KDM4A (unknown origin) at 300 nM by bio-layer interferometric method. To be noted: read-out: Kd(app). For orientation: In BLI a coated tip is dipped into the sample, and binding shifts an interference pattern.

The nature of data set [2]: Drug uptake in human MCF7 cells assessed as cell area stained at 10 uM after 3 hrs by Hoechst 33342 staining based confocal microscopic analysis. It is filed as ADME. To be noted: mcf7, 3 h.
For data set [3], the target named is T1, Lysine-specific demethylase 4A. Nature of the data set: Inhibition of KDM4A (unknown origin) expressed in Escherichia coli using biotinylated peptide as substrate pretreated for 15 mins followed by substrate addition by Alphascreen assay. (Bead proximity is the source of the signal in Alpha formats.)
Data set [4] concerns the target T2, Lysine-specific demethylase 4C (Homo sapiens, UniProt Q9H3R0).
T2 sequence (Q9H3R0 whole entry): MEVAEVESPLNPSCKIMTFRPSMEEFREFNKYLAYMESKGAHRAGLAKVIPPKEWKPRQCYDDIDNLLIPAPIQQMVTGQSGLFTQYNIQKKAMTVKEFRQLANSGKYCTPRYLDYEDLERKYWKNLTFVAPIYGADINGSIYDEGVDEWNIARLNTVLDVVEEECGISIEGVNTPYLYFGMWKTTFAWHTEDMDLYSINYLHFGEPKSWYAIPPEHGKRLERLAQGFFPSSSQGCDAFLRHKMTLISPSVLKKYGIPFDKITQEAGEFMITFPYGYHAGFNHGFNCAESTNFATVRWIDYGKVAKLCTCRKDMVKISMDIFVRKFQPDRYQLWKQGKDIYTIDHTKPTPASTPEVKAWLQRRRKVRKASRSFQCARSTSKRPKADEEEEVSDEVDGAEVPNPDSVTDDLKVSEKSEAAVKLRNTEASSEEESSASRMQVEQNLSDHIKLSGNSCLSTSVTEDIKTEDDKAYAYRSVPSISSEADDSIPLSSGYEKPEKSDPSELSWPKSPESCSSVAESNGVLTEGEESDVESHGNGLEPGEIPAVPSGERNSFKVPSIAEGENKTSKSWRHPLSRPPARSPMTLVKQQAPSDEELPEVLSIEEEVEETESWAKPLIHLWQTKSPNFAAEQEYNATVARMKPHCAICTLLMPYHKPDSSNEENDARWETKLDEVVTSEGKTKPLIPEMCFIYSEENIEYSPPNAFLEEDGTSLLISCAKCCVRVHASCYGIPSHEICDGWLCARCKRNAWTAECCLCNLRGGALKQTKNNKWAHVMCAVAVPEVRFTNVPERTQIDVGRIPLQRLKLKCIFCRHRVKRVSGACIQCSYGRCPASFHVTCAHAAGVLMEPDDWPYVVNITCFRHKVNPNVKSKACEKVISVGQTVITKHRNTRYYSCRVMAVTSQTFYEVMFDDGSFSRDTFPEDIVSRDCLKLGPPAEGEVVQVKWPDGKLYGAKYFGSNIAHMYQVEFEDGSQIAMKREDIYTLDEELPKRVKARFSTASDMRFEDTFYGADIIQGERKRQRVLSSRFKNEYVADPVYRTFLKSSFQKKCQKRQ
Put plainly: Inhibition of KDM4C (unknown origin) expressed in Escherichia coli using biotinylated peptide as substrate pretreated for 15 mins followed by substrate addition by Alphascreen assay.

Data set [5] concerns the target T1, Lysine-specific demethylase 4A. Put plainly: Inhibition of full length FLAG-tagged KDM4A (unknown origin) expressed in human HeLa cells assessed as increase in H3K9me3 levels after 24 hrs by DAPI staining based immunofluorescence assay. It is filed as cell-based.

Where a SMILES comes first, the peptide text is derived from it. Bridges are numbered along the chain shown (N, C = ends). [ ]: non-standard residue; d: D form. NMeI = CC[C@H](C)[C@H](NC)C(=O)O; NMeC = CN[C@@H](CS)C(=O)O Where only a bound is given, the exact number is not on record here.

For orientation: IC50 means the concentration that gives 50% inhibition. The term EC50 denotes the concentration giving half of the maximal effect.

As for `CC[C@H](C)[C@@H]1NC(=O)[C@H](CC(C)C)NC(=O)CNC(=O)[C@H](CO)NC(=O)[C@H](CCCNC(=N)N)NC(=O)[C@H](C(C)C)NC(=O)[C@H](C(C)C)NC(=O)[C@H](CCCCN)NC(=O)[C@@H]2CCCN2C(=O)[C@H](Cc2ccc(O)cc2)NC(=O)CSC[C@@H](C(N)=O)NC(=O)[C@H](Cc2c[nH]c3ccccc23)NC1=O` ({CH2CO}-YPKVVRSGLIWC-NH2; thioether N-12), the Kd in data set [1] was 49 nM. Further, the Drug uptake in data set [2] was found to be 1.7%. Also, the IC50 was determined as 82 nM in data set [3] and 154 nM in data set [4].
The matching figures for `CC[C@H](C)[C@@H]1NC(=O)[C@H](Cc2c[nH]c3ccccc23)NC(=O)CNC(=O)[C@H](CO)NC(=O)[C@H](CCCNC(=N)N)NC(=O)[C@H](C(C)C)NC(=O)[C@H](C(C)C)NC(=O)[C@H](CCCNC(=N)N)NC(=O)[C@H]([C@@H](C)CC)NC(=O)[C@@H](Cc2ccc(O)cc2)NC(=O)CSC[C@@H](C(N)=O)NC(=O)[C@H](Cc2c[nH]c3ccccc23)NC1=O`: 3.7 nM, 2.9%, 43 nM and 22 nM.
For the compound `CC[C@H](C)[C@@H]1NC(=O)[C@H](CCCNC(=N)N)NC(=O)[C@H]([C@@H](C)CC)NC(=O)[C@@H](Cc2ccc(O)cc2)NC(=O)CSC[C@@H](C(N)=O)NC(=O)[C@H](Cc2c[nH]c3ccccc23)NC(=O)[C@H](CC(C)C)NC(=O)[C@H](Cc2c[nH]c3ccccc23)NC(=O)[C@@H](C)NC(=O)[C@H](CO)NC(=O)[C@H](CCCNC(=N)N)NC(=O)[C@H](CCCNC(=N)N)NC1=O`, the Kd in data set [1] was determined as 3.1 nM. For the same compound, in data set [5] (hela), the EC50 is > 50000 nM. Also, in data set [2], the Drug uptake stood at 92.7%. Also, the IC50 turned out to be 15 nM in data set [3] and 38 nM in data set [4].
Turning to `CC[C@H](C)[C@@H]1NC(=O)[C@H](CCCNC(=N)N)NC(=O)[C@@H]2CCCN2C(=O)[C@@H](Cc2ccc(O)cc2)NC(=O)CSC[C@@H](C(N)=O)NC(=O)[C@H](Cc2c[nH]c3ccccc23)NC(=O)[C@H](CCCNC(=N)N)NC(=O)[C@H]([C@@H](C)CC)NC(=O)[C@@H](C)NC(=O)[C@H](CO)NC(=O)[C@H](CCCNC(=N)N)NC(=O)[C@H](CCCNC(=N)N)NC1=O`, the Kd in data set [1] stood at 14 nM. In addition, the EC50 in data set [5] (hela) was > 50000 nM. The Drug uptake in data set [2] came to 97.1%. Besides, the IC50 in data set [3] worked out at 208 nM; in data set [4] it was 173 nM.
On to `CC[C@H](C)[C@@H]1NC(=O)[C@H](CCCNC(=N)N)NC(=O)[C@H]([C@@H](C)CC)N(C)C(=O)[C@H](Cc2ccc(O)cc2)NC(=O)CSC[C@@H](C(N)=O)NC(=O)[C@H](Cc2c[nH]c3ccccc23)NC(=O)[C@H](CC(C)C)NC(=O)[C@H](Cc2c[nH]c3ccccc23)NC(=O)CNC(=O)[C@H](CO)NC(=O)[C@H](CCCNC(=N)N)NC(=O)[C@H](CCCNC(=N)N)NC1=O` ({CH2CO}-Y[NMeI]RIRRSGWLWC-NH2; thioether N-12), for which the Kd in data set [1] was found to be 14 nM. Moreover, the EC50 in data set [5] is > 50000 nM. The Drug uptake in data set [2] is given as 55.6%. In addition, the IC50 stood at 11 nM in data set [3] and 12 nM in data set [4].
The corresponding values for `CC[C@H](C)[C@@H]1NC(=O)CNC(=O)[C@H](CO)NC(=O)[C@H](CCCNC(=N)N)NC(=O)[C@H](CCCNC(=N)N)NC(=O)[C@H]([C@@H](C)CC)NC(=O)[C@H](CCCNC(=N)N)NC(=O)[C@@H]2CCCN2C(=O)[C@H](Cc2ccc(O)cc2)NC(=O)CSC[C@@H](C(N)=O)N(C)C(=O)[C@H](Cc2c[nH]c3ccccc23)NC(=O)[C@H](CCCNC(=N)N)NC1=O` ({CH2CO}-YPRIRRSGIRW[NMeC]-NH2; thioether N-12) are 9 nM, > 50000 nM, 28.2%, 373 nM and 164 nM.
Turning to `CC[C@H](C)[C@@H]1NC(=O)[C@H](Cc2c[nH]c3ccccc23)NC(=O)CNC(=O)[C@H](CO)NC(=O)[C@H](CCCNC(=N)N)NC(=O)[C@H](CCCCN)NC(=O)[C@H]([C@@H](C)CC)NC(=O)[C@H](CO)NC(=O)[C@@H]2CCCN2C(=O)[C@H](Cc2ccc(O)cc2)NC(=O)CSC[C@@H](C(N)=O)NC(=O)[C@H](Cc2c[nH]c3ccccc23)NC1=O` ({CH2CO}-YPSIKRSGWIWC-NH2; thioether N-12), the Kd in data set [1] is 21 nM. In data set [2], the Drug uptake came to 0.8%. For the same compound, the IC50 in data set [3] worked out at 41 nM; in data set [4], 55 nM.
As for `CC[C@H](C)[C@@H]1NC(=O)[C@H](CCCNC(=N)N)NC(=O)[C@H]([C@@H](C)CC)NC(=O)[C@H](Cc2ccc(O)cc2)NC(=O)CSC[C@@H](C(N)=O)N(C)C(=O)[C@H](Cc2c[nH]c3ccccc23)NC(=O)[C@H](CC(C)C)NC(=O)[C@H](Cc2c[nH]c3ccccc23)NC(=O)CNC(=O)[C@H](CO)NC(=O)[C@H](CCCNC(=N)N)NC(=O)[C@H](CCCNC(=N)N)NC1=O` ({CH2CO}-YIRIRRSGWLW[NMeC]-NH2; thioether N-12), in data set [1], the Kd was determined as 8.3 nM. For the same compound, the EC50 in data set [5] is > 50000 nM. For the same compound, the Drug uptake in data set [2] is listed as 18%. Also, the values for the IC50 in data set [3] and in data set [4] were 34 nM and 53 nM, respectively.
For the compound `CC[C@H](C)[C@@H]1NC(=O)[C@H](CCCNC(=N)N)NC(=O)[C@H]([C@@H](C)CC)NC(=O)[C@H](Cc2ccc(O)cc2)NC(=O)CSC[C@@H](C(N)=O)NC(=O)[C@H](Cc2c[nH]c3ccccc23)NC(=O)[C@H](C(C)C)NC(=O)[C@H](Cc2c[nH]c3ccccc23)NC(=O)CNC(=O)[C@H](CO)NC(=O)[C@H](CCCNC(=N)N)NC(=O)[C@H](CO)NC1=O` ({CH2CO}-YIRISRSGWVWC-NH2; thioether N-12), in data set [1], the Kd was found to be 16 nM. Further, the Drug uptake in data set [2] amounted to 12.1%. The IC50 was 31 nM in data set [3] and 23 nM in data set [4].
The corresponding values for `CC[C@H](C)[C@@H]1NC(=O)[C@H](CC(C)C)NC(=O)[C@H](Cc2ccc(O)cc2)NC(=O)CSC[C@@H](C(N)=O)NC(=O)[C@H](Cc2c[nH]c3ccccc23)NC(=O)[C@H](C(C)C)NC(=O)[C@H](CC(C)C)NC(=O)CNC(=O)[C@H](CO)NC(=O)[C@H](CCCNC(=N)N)NC(=O)[C@H](CCCNC(=N)N)NC(=O)[C@H](C(C)C)NC1=O` ({CH2CO}-YLIVRRSGLVWC-NH2; thioether N-12) are 173 nM, 3.4%, 81 nM and 151 nM.
